The values below come from patent US5354892A, “Biaryl substituted 4-amino-butyric acid amides” (Ciba-Geigy Corporation, priority 1993, dated 1994).

The subject of assay [1] is rat plasma ANF concentration. Description: Effect on rat plasma ANF concentration (ANF-infused conscious rats, radioimmunoassay). The class given is in vivo. Conditions: doses of about 1-30 mg/kg p.o., administered in 10% ethanol/PEG 400, ANF infusion 450 ng/kg/min i.v. The procedure:
The effect of the compounds of the invention on rat plasma ANF concentration can be determined as follows:
Male Sprague-Dawley rats (275-390 g) are anesthetized -with ketamine (150 mg/kg)/acepromazine (10%) and instrumented with catheters in the femoral artery and vein to obtain blood samples and infuse ANF. respectively. The rats are tethered with a swivel system and are allowed to recover for 24 hours before being studied in the conscious, unrestrained state.
In this assay, plasma ANF levels are determined in the presence and absence of NEP inhibition. On the day of study, all rats are infused continuously with ANF at 450 ng/kg/min. i.v. for the entire 5 hours of the experiment. Sixty minutes after beginning the infusion, blood samples for baseline ANF measurements are obtained (time 0) and the rats are then randomly divided into groups treated with the test compound or vehicle. Additional blood samples are taken 30, 60, 120, 180 and 240 minutes after administration of the test compound.
Plasma concentrations are determined by a specific radioimmunoassay. […] The supernatant is decanted and the pellets counted in a gamma counter. […] Plasma ANF levels are expressed as a percent of those measured in vehicle-treated animals which received ANF alone (450 ng/kg/min i.v.).

The test system of assay [2] is DOCA-salt hypertensive rats. Description: Antihypertensive effect in DOCA-salt hypertensive rats. The following applies: DOCA-salt hypertensive rat model; 30 mg/kg p.o., administered in PEG 400. The class given is in vivo. The procedure: The antihypertensive effect can be determined in desoxycorticosterone acetate (DOCA)-salt hypertensive rats.
DOCA-salt hypertensive rats (280-380 g) are prepared by the standard method. Rats underwent a unilateral nephrectomy and one week later are implanted with silastic pellets containing 100 mg/kg of DOCA. The rats are maintained on 1% NaCl/0.2% KCl drinking water for three to five weeks until sustained hypertension is established. The antihypertensive activity is evaluated at this time.
Two days before an experiment, the rats are anesthetized with methoxyflurane and instrumented with catheters in the femoral artery to measure arterial blood pressure. Forty-eight hours later, baseline arterial pressure and heart rate are recorded during a 1 hour period. The test compound (30 mg/kg p.o.) or vehicle is then administered and the same cardiovascular parameters are monitored for an additional 5 hours.

For `CCOC(=O)[C@H](C)C[C@@H](Cc1ccc(-c2ccccc2)cc1)NC(=O)CCC(=O)O` [N-(3-carboxy-1-oxopropyl)-(4S)-(p-phenylphenylmethyl)-4-amino-2R-methylbutanoic acid ethyl ester], the “plasma ANF levels” value in assay [1] is “significant increases in plasma ANF levels”. In assay [2], the blood pressure entry is “significant reduction in blood pressure”.
